Results as given in patent publication US10899769B2, “Imidazopiperazinone inhibitors of transcription activating proteins” (Board of Regents, The University of Texas System, priority 2018, dated 2021).

Tests used:
[1] = target: GST-CBP(1081-1197) bromodomain (Homo sapiens (Human), UniProt Q92793); test: CBP AlphaScreen Assay; conditions: binding to biotin-H4(1-21) Ac-K5/8/12/16
How it was run: (§1)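 AlphaScreen binding of GST-bromodomain to biotin-H4(1-21) Ac-K5/8/12/16: 5 nM CBP with 20 nM peptide, or 2.5 nM BRD4 with 10 nM peptide, in 50 mM HEPES 7.5, […], 1 mM TCEP, 0.003% Tween-20. Compound preincubated 30 min, then beads 2 h, room temperature. IC50 from variable-slope fit.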

[2] = target: BRD4(49-170) bromodomain (Homo sapiens (Human), UniProt O60885); test: BRD4 AlphaScreen Assay; conditions: binding to biotin-H4(1-21) Ac-K5/8/12/16
How it was run: as §1

GST-CBP(1081-1197) bromodomain, sequence (Q92793 1081-1197): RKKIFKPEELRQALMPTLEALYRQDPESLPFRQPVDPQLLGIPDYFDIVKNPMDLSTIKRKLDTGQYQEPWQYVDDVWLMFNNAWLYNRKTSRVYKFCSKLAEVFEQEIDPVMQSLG

| IC50 [1] [nM] | IC50 [2] [nM] | SMILES |
| --- | --- | --- |
| 3 | 440 | Cc1cnn(-c2cc3cccc(-c4nc(C5CC5)n5c4CN(C)C(=O)C5C)c3cn2)c1 (centres unmarked) [Example 14, 3-Cyclopropyl-5,7-dimethyl-1-(3-(4-methyl-1H-pyrazol-1-yl)isoquinolin-8-yl)-7,8-dihydroimidazo[1,5-a]pyrazin-6(5H)-one] |
| 181 | 12600 | Cc1nn(C)cc1-c1cc2cccc(-c3nc(C4CCOCC4)n4c3CN(C)C(=O)C4)c2cn1 [Example 96, 1-(3-(1,3-dimethyl-1H-pyrazol-4-yl)isoquinolin-8-yl)-7-methyl-3-(tetrahydro-2H-pyran-4-yl)-7,8-dihydroimidazo[1,5-a] pyrazin-6(5H)-one] |
| 482 | 20800 | C[C@H]1C(=O)N(C)Cc2c(-c3cccc4nc(-c5ccn(C)n5)c(C(F)F)cc34)nc(C3CCOCC3)n21 [Example 89b, (S)-1-(3-(difluoromethyl)-2-(1-methyl-1H-pyrazol-3-yl)quinolin-5-yl)-5,7-dimethyl-3-(tetrahydro-2H-pyran-4-yl)-7,8-dihydroimidazo[1,5-a] pyrazin-6(5H)-one] |
| 2 | 341 | CC1C(=O)N(C)Cc2c(-c3cccc4nc(-c5nsc(=O)[nH]5)c(C(F)F)cc34)nc(C3CC3)n21 (centres unmarked) [Example 46, 3-(5-(3-Cyclopropyl-5,7-dimethyl-6-oxo-5,6,7,8-tetrahydroimidazo[1,5-a]pyrazin-1-yl)-3-(difluoromethyl)quinolin-2-yl)-1,2,4-thiadiazol-5(4H)-one] |
| 2 | 187 | Cc1ncc(-c2cc3cccc(-c4nc(C5CC5)n5c4CN(C)C(=O)C5C)c3cn2)s1 (centres unmarked) [Example 13, 3-Cyclopropyl-5,7-dimethyl-1-(3-(2-methylthiazol-5-yl)isoquinolin-8-yl)-7,8-dihydroimidazo[1,5-a]pyrazin-6(5H)-one] |
| 751 | 2100 | CC1C(=O)N(C)Cc2c(-c3ccc4cncn4c3)nc(C3CC3)n21 (centres unmarked) [Example 54, 3-cyclopropyl-1-(imidazo[1,5-a]pyridin-6-yl)-5,7-dimethyl-7,8-dihydroimidazo[1,5-a] pyrazin-6(5H)-one] |
| 9 | 5700 | CN1Cc2c(N3CCCc4cc(-c5cnn(C)c5)c(C(F)F)cc43)nc(C3CC3)n2CC1=O [Example 106, 3-cyclopropyl-1-(7-(difluoromethyl)-6-(1-methyl-1H-pyrazol-4-yl)-3,4-dihydroquinolin-1(2H)-yl)-7-methyl-7,8-dihydroimidazo[1,5-a] pyrazin-6(5H)-one] |
| 37 | 8570 | CC1C(=O)N(C)Cc2c(-c3cccc4nc(-c5cnn(C)c5)c(C(F)F)cc34)nc(C3CN(S(C)(=O)=O)C3)n21 (centres unmarked) [Example 20, 1-(3-(Difluoromethyl)-2-(1-methyl-1H-pyrazol-4-yl)quinolin-5-yl)-5,7-dimethyl-3-(1-(methylsulfonyl)azetidin-3-yl)-7,8-dihydroimidazo[1,5-a]pyrazin-6(5H)-one] |
| 1 | 332 | CC1C(=O)N(C)Cc2c(N3CCCc4cc(-c5cnn(C)c5)c(C(F)F)cc43)nc(C3CC3)n21 (centres unmarked) [Example 49, 3-cyclopropyl-1-(7-(difluoromethyl)-6-(1-methyl-1H-pyrazol-4-yl)-3,4-dihydroquinolin-1(2H)-yl)-5,7-dimethyl-7,8-dihydroimidazo[1,5-a] pyrazin-6(5H)-one] |
| 45 | 2560 | CC(=O)N1CCC(c2nc(-c3cccc4nc(-c5cnn(C)c5)c(C(F)F)cc34)c3n2C(C)C(=O)N(C)C3)CC1 (centres unmarked) [Example 80, 3-(1-acetylpiperidin-4-yl)-1-(3-(difluoromethyl)-2-(1-methyl-1H-pyrazol-4-yl)quinolin-5-yl)-5,7-dimethyl-7,8-dihydroimidazo[1,5-a] pyrazin-6(5H)-one] |
| 1 | 232 | CC1C(=O)N(C)Cc2c(-c3cccc4cc(-c5ccn(C)n5)ncc34)nc(C3CCOCC3)n21 (centres unmarked) [Example 86, 5,7-dimethyl-1-(3-(1-methyl-1H-pyrazol-3-yl)isoquinolin-8-yl)-3-(tetrahydro-2H-pyran-4-yl)-7,8-dihydroimidazo[1,5-a] pyrazin-6(5H)-one] |
| 17 | 426 | Cc1nn(C)cc1-c1nc2cccc(-c3nc(C4CC4)n4c3CN(C)C(=O)C4C)c2cc1C(F)F (centres unmarked) [Example 65, 3-cyclopropyl-1-(3-(difluoromethyl)-2-(1,3-dimethyl-1H-pyrazol-4-yl)quinolin-5-yl)-5,7-dimethyl-7,8-dihydroimidazo[1,5-a] pyrazin-6(5H)-one] |
| 68 | > 25000 | CC1C(=O)N(C)Cc2c(-c3cccc4cc(-c5noc(=O)[nH]5)ncc34)nc(C3CC3)n21 (single isomer, unassigned) [Example 44a, 3-(8-(3-Cyclopropyl-5,7-dimethyl-6-oxo-5,6,7,8-tetrahydroimidazo[1,5-a]pyrazin-1-yl)isoquinolin-3-yl)-1,2,4-oxadiazol-5(4H)-one] |
| 46 | 729 | CCC1C(=O)N(C)Cc2c(-c3cccc4nc(-c5cnn(C)c5)c(C(F)F)cc34)nc(C3CCOCC3)n21 (single isomer, unassigned) [Example 64b, 1-(3-(difluoromethyl)-2-(1-methyl-1H-pyrazol-4-yl)quinolin-5-yl)-5-ethyl-7-methyl-3-(tetrahydro-2H-pyran-4-yl)-7,8-dihydroimidazo[1,5-a] pyrazin-6(5H)-one] |
| 230 | 11700 | CC1C(=O)N(C)Cc2c(-c3cccc4nc(-c5cnn(C)c5)c(C(F)F)cc34)nc(C3CCN(CCO)CC3)n21 (centres unmarked) [Example 84, 1-(3-(difluoromethyl)-2-(1-methyl-1H-pyrazol-4-yl)quinolin-5-yl)-3-(1-(2-hydroxyethyl)piperidin-4-yl)-5,7-dimethyl-7,8-dihydroimidazo[1,5-a] pyrazin-6(5H)-one] |
| 170 | 19700 | CC1C(=O)N(C)Cc2c(-c3cccc4cc(C5CCOCC5)ncc34)nc(C3CCOCC3)n21 (single isomer, unassigned) [Example 15a, 5,7-dimethyl-3-(tetrahydro-2H-pyran-4-yl)-1-(3-(tetrahydro-2H-pyran-4-yl)isoquinolin-8-yl)-7,8-dihydroimidazo[1,5-a]pyrazin-6(5H)-one] |
| 78 | 24100 | CC1C(=O)N(C)Cc2c(-c3cccc4cc(-c5ccn(C)n5)ncc34)nc(C3CCOCC3)n21 (centres unmarked) [Example 85, 5,7-dimethyl-1-(3-(1-methyl-1H-pyrazol-3-yl)isoquinolin-8-yl)-3-(tetrahydro-2H-pyran-4-yl)-7,8-dihydroimidazo[1,5-a] pyrazin-6(5H)-one] |
| 41 | 5900 | CC(=O)N1CC(c2nc(-c3cccc4nc(-c5cnn(C)c5)c(C(F)F)cc34)c3n2C(C)C(=O)N(C)C3)C1 (centres unmarked) [Example 19, 3-(1-Acetylazetidin-3-yl)-1-(3-(difluoromethyl)-2-(1-methyl-1H-pyrazol-4-yl)quinolin-5-yl)-5,7-dimethyl-7,8-dihydroimidazo[1,5-a]pyrazin-6(5H)-one] |
| 2 | 106 | Cc1ncc(-c2cc3cccc(-c4nc(C5CCOCC5)n5c4CN(C)C(=O)C5C)c3cn2)s1 (single isomer, unassigned) [Example 31b, 5,7-Dimethyl-1-(3-(2-methylthiazol-5-yl)isoquinolin-8-yl)-3-(tetrahydro-2H-pyran-4-yl)-7,8-dihydroimidazo[1,5-a]pyrazin-6(5H)-one] |
| 2 | 195 | CC1C(=O)N(C)Cc2c(-c3cccc4cc(C5CCOCC5)ncc34)nc(C3CCOCC3)n21 (single isomer, unassigned) [Example 15b, 5,7-dimethyl-3-(tetrahydro-2H-pyran-4-yl)-1-(3-(tetrahydro-2H-pyran-4-yl)isoquinolin-8-yl)-7,8-dihydroimidazo[1,5-a]pyrazin-6(5H)-one] |
| 81 | 4890 | CNC(=O)N1CC(c2nc(-c3cccc4nc(-c5cnn(C)c5)c(C(F)F)cc34)c3n2C(C)C(=O)N(C)C3)C1 (centres unmarked) [Example 24, 3-(1-(3-(Difluoromethyl)-2-(1-methyl-1H-pyrazol-4-yl)quinolin-5-yl)-5,7-dimethyl-6-oxo-5,6,7,8-tetrahydroimidazo[1,5-a]pyrazin-3-yl)-N-methylazetidine-1-carboxamide] |
| 155 | 1180 | CC1C(=O)N(C)Cc2c(-c3ccc4c(cnn4C)c3)nc(C3CC3)n21 (centres unmarked) [Example 50, 3-cyclopropyl-5,7-dimethyl-1-(1-methyl-1H-indazol-5-yl)-7,8-dihydroimidazo[1,5-a] pyrazin-6(5H)-one] |
| 1 | 215 | Cc1ncc(-c2cc3ccc(F)c(-c4nc(C5CCOCC5)n5c4CN(C)C(=O)C5C)c3cn2)s1 (single isomer, unassigned) [Example 37a, 1-(7-Fluoro-3-(2-methylthiazol-5-yl)isoquinolin-8-yl)-5,7-dimethyl-3-(tetrahydro-2H-pyran-4-yl)-7,8-dihydroimidazo[1,5-a]pyrazin-6(5H)-one] |
| 4 | 879 | CC1C(=O)N(C)Cc2c(-c3c(F)ccc4cc(-c5ccn(C)n5)ncc34)nc(C3CCOCC3)n21 (single isomer, unassigned) [Example 90b, 1-(7-fluoro-3-(1-methyl-1H-pyrazol-3-yl)isoquinolin-8-yl)-5,7-dimethyl-3-(tetrahydro-2H-pyran-4-yl)-7,8-dihydroimidazo[1,5a] pyrazin-6(5H)-one] |
| 3 | 408 | Cc1ccn(-c2cc3cccc(-c4nc(C5CC5)n5c4CN(C)C(=O)C5C)c3cn2)n1 (centres unmarked) [Example 73, 3-cyclopropyl-5,7-dimethyl-1-(3-(3-methyl-1H-pyrazol-1-yl)isoquinolin-8-yl)-7,8-dihydroimidazo[1,5-a] pyrazin-6(5H)-one] |
